Structures are written as SMILES.

For orientation: melting point means the temperature of the solid-liquid transition. `CC1CCNc2nc3ccc([N+](=O)[O-])cc3n21` (stereo unspecified) came in with a melting point of 172 to 178 °C.

For `CC(=O)Nc1ncc(S(=O)(=O)NCC(O)(Cn2cncn2)c2ccc(Cl)cc2Cl)s1` (stereo unspecified), the melting point was in the range of 96 to 112 °C. Turning to `CC(C)(C)OC(=O)N1CCOc2ccc(Br)cc2S1(=O)=O`, the melting point came to 119 °C. The compound `CCc1noc(-c2cn(-c3cccc(OCc4ccccc4)c3)cn2)n1` registered a melting point of 113 to 114 °C. As for `O=C(O)C#Cc1ccc(Cl)cc1Cl`, the figure is 161 to 163 °C. For `CC(Cl)(Cl)C(NC(=O)c1cccc(Cl)c1)NC(=NC#N)Nc1ccccc1F` (stereo unspecified), the melting point lay in the range of 136 to 138 °C. As for `CCN(CC)C(=O)COc1nc(-c2ccccc2)cc2ccccc12`, the figure is 102 °C; as for `O=[N+]([O-])c1cc(Cl)c(Cl)cc1NCCCCl`, 78 °C; as for `CN1CC2Cc3ccc(Cl)cc3C(=O)C2C1` (stereo unspecified), 148 to 150 °C. As to `COCC(=O)NCc1cccc(-c2csc(N=C(N)N)n2)n1`, the melting point was in the range of 195 to 196 °C. As for `Cc1ccc(-c2ccc(C(=O)N3Cc4cccn4Cc4ccccc43)cc2)c2ccccc12`, the figure is 160 to 162 °C; as for `CS(=O)(=O)NCCC1(C[N+](=O)[O-])CCCCC1`, 86 to 88 °C. In the case of `O=C(O)CCc1cn(Cc2ccc3cc(OCc4ccccc4F)ccc3c2)cc1-c1ccccc1` it was 143 to 144 °C; in that of `COC(=O)c1ccc(N)cc1C(=O)OC`, 83 to 85 °C; in that of `Cc1nc2c(O[C@H]3c4ccccc4C[C@@H]3O)cccn2c1CO`, 174 to 175 °C. In turn, `CC(=O)OCCn1c([N+](=O)[O-])cnc1C` registered a melting point of 143 to 145 °C.

`CCOC(=O)c1oc(-c2ccccc2)cc(=O)c1Cl`: the melting point was 121 °C. As for `O=C1CCC(N2Cc3cc(CNC(=O)Nc4ccc(Cl)c(-c5nc6ccccc6[nH]5)c4)ccc3C2=O)C(=O)N1` (stereo unspecified), the figure is 275 to 277 °C; as for `CCOC(=O)N1CCN(c2c(F)c(N)c3c(=O)c(C(=O)O)cn(C4CC4)c3c2F)C(C)C1` (stereo unspecified), 220 to 225 °C; as for `COc1cc(COc2nn(-c3ccccc3)cc2C=O)ccc1OCc1nc(N2CCOCC2)sc1C`, 149 to 150 °C.

The compound `CCCCn1ccc(Cc2cnc(N[N+](=O)[O-])[nH]c2=O)cc1=O` returned a melting point of 198 to 201 °C. For `NC(=O)c1nn(-c2ccc(S(N)(=O)=O)cc2)c2ccncc12`, the melting point lay within 301 to 302 °C. In the case of `C[C@@H](C(N)=O)c1ccc(NS(=O)(=O)c2cccs2)cc1` it was 58 to 60 °C; in that of `CC(C)N1Cc2cccnc2N(c2ccccc2)C1=O`, 164 to 165 °C. In the case of `CC(=O)c1ccc(NC(=O)c2cc(Cl)cc(Cl)c2)cc1` it was 199 to 200 °C; in that of `CCC1(COCc2ccccc2Cl)CCC(C)(C(N)=S)O1` (stereo unspecified), 78 to 80 °C. As for `Cn1ncnc1COc1nn2c(-c3ccccc3F)nnc2cc1C12CCC(C1)C2`, the figure is 198 to 200 °C. `COc1ccc(S(=O)(=O)N(Cc2ccccc2)c2c(C(=O)O)cnc3c2cnn3-c2ccccc2)cc1` came in with a melting point of 108 to 110 °C. In the case of `N#Cc1ccc(-c2ccc(C=O)cc2)c(OCc2ccccc2)c1` it was 131 to 132 °C; in that of `O=C(OCCOCCO)c1ccc(O)c(Cl)c1`, 77.5 to 78 °C; in that of `OCCCc1nc(COc2ccc(CCCn3ccnc3)cc2)co1`, 63 to 64 °C. In the case of `O=c1cc(-c2ccccc2)cc(-c2ccccc2)[nH]1` it was 209 to 212 °C; in that of `CN(C)CC(=O)Nc1nc(-c2ccco2)c(C(=O)C2CCOCC2)s1`, 129 to 130 °C; in that of `COS(=O)(=O)c1ccc(Cl)cc1NC(=O)/C=C/c1ccc2ccccc2c1`, 178 to 180 °C.

As to `Cc1ccc(Oc2ccc(NN)cc2)c(O)c1`, the melting point fell in the range of 145 to 148 °C.

Consider `COc1ccc(N=C(C)c2ccccc2)cc1`, for which the melting point was 81 to 82 °C.

The values are drawn from a melting point compilation (Tetko et al.; mined from patent text by program, amines drawn as free bases though some values may be those of a salt).
